Source: patent US7166581B1, “Treatment of chemotherapeutic agent and antiviral agent toxicity with acylated pyrimidine nucleosides” (Wellstat Therapeutics Corporation, priority 1987, dated 2007)

What was measured:
[1] = tested on: CD8F1 spontaneous breast tumors; assay: TAU/uridine rescue with PALA-MTX-5-FU-LV combination chemotherapy in tumor-bearing mice (Example 6); assay type: in vivo, male CD8F1 mice; details: PALA-MTX-5-FU-LV weekly x3
Experimental: Forty male CD8F1 mice with transplanted CD8F1 spontaneous breast tumors (initial tumor weight of 155 mg) were treated weekly with the following regimen:
In order to evaluate and compare the efficacy of TAU and uridine, the mice were divided into four groups of ten animals each.
Saline, uridine, or TAU was administered every eight hours for a total of 5 treatments starting two hours after each weekly dose of 5-FU. This weekly regimen was repeated for three successive weeks. One week after the third course of chemotherapy regimen, mortality in each group was assessed and, where a sufficient number of animals survived, body weight and tumor weight were also measured.

[2] = tested on: hematopoietic system (5-FU toxicity); assay: Oral TAU vs uridine rescue from 5-FU hematologic toxicity (Example 1); assay type: in vivo, female Balb/C mice
Experimental: Forty-five female Balb/C mice (20 grams each) were given 5-fluorouracil (150 mg/kg, i.p.) at 12:00 noon on the initial day of the experiment. These animals were then divided into 5 groups: control (water, p.o.), oral uridine at 400 mg/kg/dose, oral uridine at 800 mg/kg/dose, parenteral (i.p.) uridine at 400 mg/kg/dose, and oral TAU at 500 mg/kg/dose.
Two hours after administration of 5-FU, the rescue treatments with uridine or triacetyluridine were begun. Groups received their designated treatment at 2:00 p.m., 4:00 p.m., and 6:00 p.m. on the day of 5-FU administration, and at 9 a.m., 11:00 a.m., 1:00 p.m., 3:00 p.m. and 5:00 p.m. on the following day. Each dose of uridine or TAU was administered in 0.2 ml of water by gavage or in 0.2 ml of saline by i.p. injection, as appropriate.
Mice were sacrificed by cervical dislocation; femurs were removed, and their cell contents were expelled for counting; spleens were also removed and weighed. […]

[3] = tested on: CD8F1 spontaneous mammary adenocarcinoma; assay: TAU/uridine rescue with 5-FU alone in tumor-bearing mice (Example 5); assay type: in vivo
Experimental: Sixty CD8F1 (BALB/C×[…]) female mice with first generation transplants of CD8F1 spontaneous mammary adenocarcinoma were treated with a weekly chemotherapy regimen which included a single dose of 5-FU (150 mg/kg) followed by various rescue strategies. The average tumor size was 157 mg at the start of the chemotherapy. The weekly chemotherapy course was completed three times.
In order to evaluate the various rescue therapies, the animals were divided into six groups of ten animals each as follows: […]

[4] = tested on: hematopoietic system (5-FU toxicity); assay: Acyl derivatives of uridine i.p. vs bone marrow toxicity of 5-FU (Example 3); assay type: in vivo, female Balb/C mice; details: for HCT % / Lym / Neut / RBC / WBC: eleven days after 5-FU
Experimental: Ninety-eight female Balb/C mice weighing approximately 20 grams each were given a one-time 150 mg/kg injection (i.p.) of 5-FU at 1 p.m. on the initial day of the study. […] All of these doses are equimolar, and were administered in a volume of 0.4 ml by i.p. injection. The groups were treated at 3:30, 6:00, and 8:30 p.m. on the initial day with their respective agents. […] On days seven and eleven following 5-FU administration, blood (0.2–0.3 ml) was collected from seven mice in each group by retro-orbital bleeding into EDTA for subsequent differential blood cell counting. Mice were sacrificed by cervical dislocation; their right femurs removed and the contents expelled for cell counting; and their spleens removed and weighed.

[5] = Plasma uridine after oral uridine or TAU, with or without dipyridamole (Example 12); assay type: in vivo, female Balb/C mice
Experimental: Female Balb/C mice with a body weight of 20 grams were divided into four groups of 8 animals each: [table] Dipyridamole was administered by intraperitoneal injection 30 minutes prior to uridine or TAU Uridine was administered orally by gavage as an aqueous solution in a volume of 0.4 ml. TAU was administered by gavage in an emulsion vehicle (1:1 corn oil/water with 2.5% Tween 80). Two mice from each group were bled from the suborbital plexus at each time point: 0 (Basal uridine levels before TAU or uridine administration), 0.5, 1, 2, and 4 hours after administration of TAU or uridine Plasma samples (0.1 ml) were deproteinized by addition of 0.2 ml methanol followed by centrifugation. Samples were lyophilized and then reconstituted with HPLC buffer (100 mM ammonium acetate, pH 6.5, for subsequent assay of uridine by reverse phase HPLC with UV absorbance detection (254 nm). Data points are the mean of two samples for each time point.

[6] = oral uridine 4,000 or equimolar TAU 6,066 mg/kg every 8 h x5
[7] = 7 days after 5-FU 150 mg/kg i.p., oral, Urd 400 or equimolar TAU 500 mg/kg/dose
[8] = 7 days after 5-FU, oral, Urd 400 or equimolar TAU 500 mg/kg/dose
[9] = 11 days after 5-FU, oral, Urd 400 or equimolar TAU 500 mg/kg/dose
[10] = 5-FU 150 mg/kg i.p. weekly x3 + oral uridine 5,000 or equimolar TAU 7,582 mg/kg
[11] = day seven after 5-FU, TAU 455 mg/kg/treatment i.p.
[12] = 7 days after 5-FU, Urd 400 mg/kg/dose i.p.
[13] = 7 days after 5-FU, Urd 800 mg/kg/dose oral
[14] = 11 days after 5-FU, Urd 400 mg/kg/dose i.p.
[15] = 11 days after 5-FU, Urd 800 mg/kg/dose oral
[16] = 5-FU 150 mg/kg i.p. weekly x3 + uridine 3,500 mg/kg i.p.

## CC(=O)OC[C@H]1O[C@@H](n2ccc(=O)[nH]c2=O)[C@H](OC(C)=O)[C@@H]1OC(C)=O [TAU, triacetyluridine]
[1]; oral TAU 6,066 mg/kg
  Average Final Tumor Weight: 162 mg
[1]; [6]
  Mortality: 1/10
[2]; [7]
  WBC: 5.9 ± .4 K/μl
[2]; [8]
  Lymphocytes: 4.72 ± .36 K/μl
  Marrow cell counts: 3.0 ± .5 × 10^6 × 10^6/femur
  Neutrophils: 1.20 K/μl
  Platelets: 723 K/μl
  RBC: 8.27 ± .16 M/μl
  Spleen weight: 78 ± 3.5 mg
[2]; [9]
  Lymphocytes: 3.29 ± .36 K/μl
  Neutrophils: 1.89 K/μl
  Platelets: 1446 K/μl
  RBC: 8.05 M/μl
  Spleen weight: 143 ± 11 mg
  WBC: 5.4 ± .5 K/μl
[3]; [10]
  Average Final Tumor Weight: 1,013 mg
  Mortality: 1/10
[4]; [11]
  bone marrow cellularity: 4.50±77 ×10^3 per microliter
  increase of bone marrow cellularity over control values: 40%
[4]; equimolar i.p. doses
  HCT %: 35.01 ± 1.2%
  Lym: 5.6 ± .4 K/μl
  Neut: .55 ± K/μl
  RBC: 7.35 ± .2 M/μl
  WBC: 6.23 ± .55 K/μl

## O=c1ccn([C@@H]2O[C@H](CO)[C@@H](O)[C@H]2O)c(=O)[nH]1 [Urd, uridine]
[5]; female, Balb/C, mouse, plasma, oral, 1000 mg/kg, 0 hr (basal, before TAU or uridine), DPM 25 mg/kg i.p. 30 min before where given, read-out: Plasma uridine levels
  concentration at 0 h: 2 µM
[5]; female, Balb/C, mouse, plasma, oral, 0.5 hr after uridine 1000 mg/kg p.o. or equimolar TAU 1500 mg/kg p.o., ± DPM 25 mg/kg i.p., read-out: Plasma uridine levels
  concentration at 0.5 h: 4 µM
[5]; female, Balb/C, mouse, plasma, oral, 1 hr after uridine 1000 mg/kg p.o. or equimolar TAU 1500 mg/kg p.o., ± DPM 25 mg/kg i.p., read-out: Plasma uridine levels
  concentration at 1 h: 6 µM
[5]; female, Balb/C, mouse, plasma, oral, 2 hr after uridine 1000 mg/kg p.o. or equimolar TAU 1500 mg/kg p.o., ± DPM 25 mg/kg i.p., read-out: Plasma uridine levels
  concentration at 2 h: 4 µM
[5]; female, Balb/C, mouse, plasma, oral, 4 hr after uridine 1000 mg/kg p.o. or equimolar TAU 1500 mg/kg p.o., ± DPM 25 mg/kg i.p., read-out: Plasma uridine levels
  concentration at 4 h: 2 µM
[5]; uridine 1000 mg/kg p.o. or equimolar TAU 1500 mg/kg p.o., ± DPM 25 mg/kg i.p.
  peak plasma uridine levels: 6 µM
[1]; [6]
  Mortality: 5/10
[1]; uridine 3,500 mg/kg i.p.
  Average Final Tumor Weight: 110 mg
[1]; uridine 3,500 mg/kg i.p. every 8 h x5
  Mortality: 0/10
[2]; [7]
  WBC: 4.4 ± .5 K/μl
[2]; [12]
  Lymphocytes: 3.80 ± .30 K/μl
  Marrow cell counts: 5.0 ± .7 × 10^6 × 10^6/femur
  Neutrophils: 0.83 ± .24 K/μl
  Platelets: 773 K/μl
  RBC: 8.06 ± .05 M/μl
  Spleen weight: 78 ± 5.5 mg
  WBC: 4.6 ± .4 K/μl
[2]; [13]
  Lymphocytes: 3.76 ± .27 K/μl
  Marrow cell counts: 2.9 ± .9 × 10^6 × 10^6/femur
  Neutrophils: 0.88 ± .22 K/μl
  Platelets: 646 K/μl
  RBC: 8.24 ± .26 M/μl
  Spleen weight: 74 ± 6.4 mg
  WBC: 4.6 ± .4 K/μl
[2]; [8]
  Lymphocytes: 3.01 ± .77 K/μl
  Marrow cell counts: 1.6 ± .2 × 10^6 × 10^6/femur
  Neutrophils: 0.48 ± .23 K/μl
  Platelets: 434 K/μl
  RBC: 7.66 ± .12 M/μl
  Spleen weight: 74 ± 2.4 mg
[2]; [14]
  Lymphocytes: 3.84 ± .38 K/μl
  Neutrophils: 1.20 ± .21 K/μl
  Platelets: 1706 K/μl
  RBC: 7.78 ± .22 M/μl
  Spleen weight: 104 ± 6 mg
  WBC: 5.1 ± .5 K/μl
[2]; [15]
  Lymphocytes: 4.07 ± .38 K/μl
  Neutrophils: 0.82 ± .19 K/μl
  Platelets: 2127 K/μl
  RBC: 7.33 ± .16 M/μl
  Spleen weight: 99 ± 6 mg
  WBC: 4.9 ± .4 K/μl
[2]; [9]
  Lymphocytes: 3.65 ± .27 K/μl
  Neutrophils: 0.84 ± .19 K/μl
  Platelets: 1940 K/μl
  RBC: 7.44 ± .14 M/μl
  Spleen weight: 103 ± 15 mg
  WBC: 4.6 ± .5 K/μl
[3]; [10]
  Average Final Tumor Weight: 896 mg
  Mortality: 0/10
[3]; [16]
  Average Final Tumor Weight: 1,604 mg
  Mortality: 1/10
[4]; day eleven after 5-FU, equimolar i.p. doses, in mg
  Spleen weights: 121.6±9.7
[4]; day seven after 5-FU 150 mg/kg i.p., i.p. doses equimolar to uridine 300 mg/kg/treatment
  Spleen weight: 80.4 ± 7.8 mg
[4]; day seven after 5-FU, equimolar i.p. doses
  Platelet counts: 785.3±57.5 ×10^3 per microliter
[4]; equimolar i.p. doses
  HCT %: 34.67 ± 0.9%
  Lym: 4.6 ± .4 K/μl
  Neut: .60 ± K/μl
  RBC: 7.32 ± .2 M/μl
  WBC: 5.20 ± .47 K/μl
